Measurements from patent publication US8487006B2, “Method of enhancing TGF-β signalling” (Auxagen, Inc., priority 2008, dated 2013).

Legend:
[1] = test system: PAI-1 expression in Mv1Lu cells; experiment: TGF-β1-stimulated expression of PAI-1 mRNA (Northern blot / real-time RT-PCR) in Mv1Lu cells; assay type: cell-based
Description: (A-G) Cells were pretreated with vehicle only or with several concentrations (as indicated) of β-CD (A,C), thioridazine (B), TFP (D), chloroquine (E), monensin (F) and MDC (G) at 37° C. for 1 h. Treated cells were then stimulated with 50 pM TGF-β1. After 2 h at 37° C., the mRNAs of PAI-1 and G3PDH (as control) in the cell lysates were analyzed by Northern blot (top) and quantified using a PhosphoImager (bottom) (A,B) or real-time RT-PCR (C to G). The TGF-β-stimulated expression of PAI-1 in cells treated with vehicle only was taken as 100% (A, B) or 1 fold (C to G) of control. […] (H) Cells were pretreated with several concentrations (as indicated) of dynasore at 37° C. for 1 h and then stimulated with 50 pM TGF-β1. After 2 h at 37° C., the mRNA of PAI-1 was quantitated by real-time RT-PCR. The relative level of PAI-1 mRNA in cells treated with TGF-β1 alone was taken as 1 (100%). Experiments were carried out in triplicate. The data shown is representative of 3 independent experiments.
The PAI-1 gene is one of the most studied genes responsive to TGF-β stimulation^4,5. The promotor region of the PAI-gene contains several Smad2/3 binding sites that have been used as the TGF-β responsive elements to enhance the expression of a reported gene^4,5. […] Cells were pretreated with vehicle only and several concentrations of β-CD, thioridazine, TFP, MDC, monensin and chloroquine at 37° C. for 1 h. Cells were then stimulated with 50 pM TGF-β1. After 2 h at 37° C., the relative levels of PAI-1 mRNA were analyzed by quantitative Northern blot analysis (FIGS. 3A and 3B) and real-time RT-PCR (FIG. 3C-3G).

[2] = test system: PAI-1 expression in Chinese hamster ovary cells (CHO cells); experiment: TGF-β-stimulated expression of PAI-1 in CHO cells; assay type: cell-based; settings: dynasore 50 μM; CHO cells (unpublished results)
Description: (§1) We hypothesize that TGF-β enhancers such as inhibitors of clathrin-dependent endocytosis may ameliorate atherosclerosis caused by cholesterol-induced suppression of TGF-β responsiveness in vascular cells^3,12. To test our hypothesis, we treated hypercholesterolemic ApoE-null mice with dynasore (1 mg/kg body weight) via intraperitoneal administration every two days for 8 weeks. We chose dynasore for two reasons. […] At 50 μM, it enhances TGF-β-stimulated expression of PAI-1 in these cell types by ˜4-5 fold, 2) Dynasore is the only inhibitor tested which alone is capable of stimulating PAI-1 expression. […] The plasma levels of cholesterol in wild-type mice treated with either vehicle only or dynasore were 120±10 and 125±20 mg/dl, respectively.

[3] = test system: hypercholesterolemic ApoE-null mice; experiment: Atherosclerosis in hypercholesterolemic ApoE-null mice (coronary artery histology, TβR-II staining, plasma cholesterol); assay type: in vivo
Description: (§2) Wild-type and ApoE-null mice were treated with vehicle only (a, c) or 1 mg/kg dynasore (b, d) every two days for 8 weeks. The coronary arteries were removed from the animals and subjected to histological analysis by H & E staining (A) and indirect immunofluorescent staining for TβR-II(B). The asterisk (*) indicates the location of the lumen in coronary arteries. The arrow indicates the immunofluorescent staining of TβR-II in the aortic endothelium.
as §1
(§3) However, no TβR-II staining was found in the aortic endothelium and smooth muscle of coronary arteries in ApoE-null mice treated with vehicle only (FIG. 4Bc).

wild-type mice = experiment: Wild-type mice treated with dynasore (organ pathology, coronary artery histology, TβR-II staining, plasma cholesterol); assay type: in vivo
Description: as §2, §1, §3

[4] = dynasore 1 mg/kg every two days for 8 weeks, indirect immunofluorescent staining

morphology of the coronary arteries (wild-type mice; dynasore 1 mg/kg every two days for 8 weeks, H & E staining): normal morphology
SMILES: O=C(N/N=C/c1ccc(O)c(O)c1)c1cc2ccccc2cc1O [dynasore]
stimulation of PAI-1 expression by dynasore alone ([1]; dynasore 25 μM without TGF-β1, real-time RT-PCR): to the same extent as with 50 pM TGF-β1 alone
enhancement of TGF-β-stimulated expression of PAI-1 ([1]; dynasore 50 μM): 4-5 fold
enhancement of TGF-β1-stimulated PAI-1 expression ([1]; dynasore 50 μM, 50 pM TGF-β1 for 2 h, real-time RT-PCR): ~5 fold
enhancement of TGF-β-stimulated expression of PAI-1 [2]: 4-5 fold
TβR-II staining in the aortic endothelium of coronary arteries [3, 4]: appeared to restore the TβR-II staining
TβR-II staining in the smooth muscle near the endothelium [3, 4]: slight staining of TβR-II was found
effect on atherosclerosis ([3]; dynasore 1 mg/kg intraperitoneal every two days for 8 weeks): effectively ameliorates atherosclerosis
macrophages or foam cells in the endothelium of the coronary arteries ([3]; dynasore 1 mg/kg intraperitoneal every two days for 8 weeks, H & E staining): very few macrophages or foam cells were found
macroscopic or microscopic abnormality in the liver, heart, lung and kidney (wild-type mice; dynasore 1 mg/kg intraperitoneal every 2 days for 8 weeks): no apparent macroscopic or microscopic abnormality has been detected
